“Also recorded” adds a separate entry of the source. Counter-ions that a name gives are not always drawn.

This note sets out measurements from patent publication US4461899A, “Fluorenecarboxylic acid derivatives” (Diamond Shamrock Chemicals Company, priority 1982, dated 1984).

Holding throughout (assay type): in vivo
One series relates to soybean plants. Kind of series: Soybean yield after foliar spray at early flowering stage. The conditions noted are these: for Yield Improvement %: vs control. The source says: Two 50 cm rows of soybean plants at the early flowering stage were sprayed with 100 ppm or 500 ppm of the cis-2,5-dimethylpyrrolidine salt of 9-fluorenecarboxylic acid, using a spray volume of about 375 liters/hectare (40 gallons/acre). For comparison, other rows were sprayed with like concentrations of two known compounds as designated below. Also 2 untreated rows were maintained to serve as a control: each of the plots was weeded by hand as needed. At maturity, each plot was harvested and the yield was determined.

Series [1] relates to field grown tomato plants. Nature of the series: Fruit set and phytotoxicity in field grown tomato plants. The conditions noted are these: for Increase Over Control (%) of fruit set: 24 days; for Fruit Set Per Plant (After 24 days) / Phytotoxicity: 24 days after treatment; for Increase (%) of fruit set: initial to 24 days. The source says:
To determine fruit set effects by compounds of this invention, field grown tomato plants were foliage sprayed with the cis-2,5-dimethylpyrrolidine salt of […], 9-cis-2,5-dimethyl-1-pyrrolidinyl-2-chlorofluorene-9-carboxylic acid, methyl ester, and the commercial plant growth regulant, MAINTAIN CF-125 (methyl-2-chloro-9hydroxyfluorene-9-carboxylate, manufactured by U.S. Borax and Chemical Corp.). Rates of application employed were 5, 25, and 100 ppm when the tomato plants were in the late blooming to early fruit setting stage. Untreated plants were included in the test as controls. Five plants were sprayed for each chemical treatment. The number of fruit set and the degree of phytotoxicity to the plants were determined 24 days after treatment.

Series [2] concerns "Walter" variety tomato plants. Nature of the series: Yield of "Walter" variety tomatoes, weekly harvest of mature red fruit. The settings on record: for Total Fruit / Total Fruit, % of Control: weeks 1-6. The source says:
Compounds of this invention were further tested as tomato yield enhancers as follows:
"Walter" variety tomato plants, in the early flowering stage, were foliage sprayed at a rate of 68.8 liters/hectare with compounds of this invention, and with the commercial product, CF-125. Each plot consisted of 20 plants; the experimental design was a completed randomized block with three replications. A plot of untreated plants was included as a control. Marketable, mature red tomatoes were harvested weekly, beginning 5 weeks after treatment.

Series [3] relates to field grown tomato plants. Kind of series: Overall yield and fruit size of field grown tomatoes. The settings on record: for tomato yield / fruit size, in words: 10, 50 and 500 ppm, Example 1 decrease at 500 ppm; for Fruit Size, Green (% of Control): control 104.0 g; for Fruit Size, Red (% of Control): control 105.5 g. The source says:
This example illustrates the effects of compounds of this invention on overall yield of tomatoes. For the test, field grown tomato plants, when in the early flowering stage, were foliage sprayed with the particular compounds of the invention designated below, and with the commercial product CF-125 (Maintain), at rates of 10, 50 and 500 ppm. These rates correspond to applications of 3.69 g, 18.54 g and 185.4 g/hectare, respectively. Each treatment consisted of five plants; the experimental design was a complete randomized block with three replications. A block of untreated plants was included as the control. The fruit was harvested by hand and separated into […] ripe fruit and marketable green fruit.

With `O=C(O)C1c2ccccc2-c2ccccc21` [9-fluorenecarboxylic acid], the figures for the “Yield (Kilograms) × 10^2” value with soybean plants (100 ppm) and in the series with soybean plants (500 ppm) were 18.93 Kilograms × 10^2 and 19.02 Kilograms × 10^2, respectively. Further, the “Yield Improvement %” value came to 7.3% in the series with soybean plants (100 ppm) and 7.5% in the series with soybean plants (500 ppm).

With `COC(=O)C1(N2[C@H](C)CC[C@@H]2C)c2ccccc2-c2ccc(Cl)cc21` (stereo partly drawn) [Example 8, 9-cis-2,5-dimethyl-1-pyrrolidinyl-2-chlorofluorene-9-carboxylic acid, methyl ester], in series [1] (5 ppm), the “Increase Over Control (%) of fruit set” value stood at 36%, the “Fruit Set Per Plant (After 24 days)” value is given as 19.6, the Phytotoxicity is listed as 0 and the “Fruit Set Per Plant (Initial)” value turned out to be 9.4. Moreover, in series [1] (5 ppm), the “Increase (%) of fruit set” value worked out at 109%. In series [1] (25 ppm), the “Increase Over Control (%) of fruit set” value is reported as 9%, the “Fruit Set Per Plant (After 24 days)” value was determined as 18.6, the Phytotoxicity was 0 and the “Fruit Set Per Plant (Initial)” value came to 10.2. In addition, the “Increase (%) of fruit set” value in series [1] (25 ppm) is given as 82%. In addition, in series [1] (100 ppm), the “Increase Over Control (%) of fruit set” value was -23%, the “Fruit Set Per Plant (After 24 days)” value is on record as 15.6, the “Fruit Set Per Plant (Initial)” value is recorded as 10.4 and the “Increase (%) of fruit set” value turned out to be 50%. Moreover, the “increased tomato yields above the yield of control plots” value in series [2] (5-10 ppm) is 39-80%. For the same molecule, in series [2] (5 ppm), the “Fruit Yield (kg/plot)” value was determined as 32.8 kg/plot; the “Total Yield Wt. % of Control” value is on record as 139.0 % of Control; the “Fruit harvested, Harvest Time (Week) 1” value was 11; the “Fruit harvested, Harvest Time (Week) 2” value turned out to be 109. Also, in series [2] (5 ppm), the “Fruit harvested, Harvest Time (Week) 3” value came out at 103; the “Fruit harvested, Harvest Time (Week) 4” value came out at 168; the “Fruit harvested, Harvest Time (Week) 5” value is on record as 208; the “Fruit harvested, Harvest Time (Week) 6” value is given as 286. Further, in series [2] (5 ppm), the “Total Fruit” value was 885 and the “Total Fruit, % of Control” value is 154 % of Control. Further, in series [2] (10 ppm), the “Fruit Yield (kg/plot)” value was 42.6 kg/plot; the “Total Yield Wt. % of Control” value is recorded as 180.5 % of Control; the “Fruit harvested, Harvest Time (Week) 1” value was 13; the “Fruit harvested, Harvest Time (Week) 2” value is 123. Also, in series [2] (10 ppm), the “Fruit harvested, Harvest Time (Week) 3” value is on record as 126; the “Fruit harvested, Harvest Time (Week) 4” value is reported as 240; the “Fruit harvested, Harvest Time (Week) 5” value was 306; the “Fruit harvested, Harvest Time (Week) 6” value is 296. Besides, in series [2] (10 ppm), the “Total Fruit” value worked out at 1104 and the “Total Fruit, % of Control” value is reported as 192 % of Control. Also, in series [2] (50 ppm), the “Fruit Yield (kg/plot)” value was determined as 15.4 kg/plot; the “Total Yield Wt. % of Control” value was 65.3 % of Control; the “Fruit harvested, Harvest Time (Week) 1” value came to 34; the “Fruit harvested, Harvest Time (Week) 2” value is reported as 150. Moreover, in series [2] (50 ppm), the “Fruit harvested, Harvest Time (Week) 3” value is 81; the “Fruit harvested, Harvest Time (Week) 4” value worked out at 25; the “Fruit harvested, Harvest Time (Week) 5” value is 9; the “Fruit harvested, Harvest Time (Week) 6” value stood at 100. Further, in series [2] (50 ppm), the “Total Fruit” value stood at 399 and the “Total Fruit, % of Control” value was 69 % of Control. Also, the “tomato yield / fruit size, in words” value in series [3] is “became inhibitory above the 50 ppm rate”. In addition, in series [3] (10 ppm), the “Fruit Yield, Green (% of Control)” value is 64 % of Control; the “Fruit Yield, Red (% of Control)” value is reported as 161 % of Control; the “Total Yield (% of Control)” value is given as 97 % of Control; the “yield of red fruit over the control yield” value is reported as 61%. Further, in series [3] (10 ppm), the “Fruit Size, Green (% of Control)” value is reported as 93 % of Control and the “Fruit Size, Red (% of Control)” value is on record as 82 % of Control. For the same molecule, in series [3] (50 ppm), the “Fruit Yield, Green (% of Control)” value is on record as 26 % of Control; the “Fruit Yield, Red (% of Control)” value is recorded as 93 % of Control; the “Total Yield (% of Control)” value was 49 % of Control; the “Fruit Size, Green (% of Control)” value is given as 46 % of Control. Further, the “Fruit Size, Red (% of Control)” value in series [3] (50 ppm) is 95 % of Control. For the same molecule, in series [3] (500 ppm), the “Fruit Yield, Green (% of Control)” value is reported as 0 % of Control; the “Fruit Yield, Red (% of Control)” value is listed as 76 % of Control; the “Total Yield (% of Control)” value is on record as 26 % of Control; the “Fruit Size, Green (% of Control)” value is reported as 0 % of Control. Besides, the “Fruit Size, Red (% of Control)” value in series [3] (500 ppm) is given as 67 % of Control.

Consider `O=C(O)c1cccc2c1Cc1ccccc1-2` [Example 3, 2,6-Dimethyl piperidine salt of fluorene-1-carboxylic acid], for which the “tomato yield / fruit size, in words” value in series [3] is “increased the yield of red fruit at all rates of application; also recorded: increasing the size of the fruit”. Besides, in series [3] (10 ppm), the “Fruit Yield, Green (% of Control)” value is given as 45 % of Control; the “Fruit Yield, Red (% of Control)” value is 119 % of Control; the “Total Yield (% of Control)” value was 70 % of Control; the “Fruit Size, Green (% of Control)” value is on record as 137 % of Control. Moreover, the “Fruit Size, Red (% of Control)” value in series [3] (10 ppm) is given as 161 % of Control. In series [3] (50 ppm), the “Fruit Yield, Green (% of Control)” value is recorded as 69 % of Control; the “Fruit Yield, Red (% of Control)” value is listed as 122 % of Control; the “Total Yield (% of Control)” value is 128 % of Control; the “Fruit Size, Green (% of Control)” value is given as 101 % of Control. Besides, the “Fruit Size, Red (% of Control)” value in series [3] (50 ppm) is recorded as 165 % of Control. Further, in series [3] (500 ppm), the “Fruit Yield, Green (% of Control)” value was 86 % of Control; the “Fruit Yield, Red (% of Control)” value is given as 127 % of Control; the “Total Yield (% of Control)” value is on record as 59 % of Control; the “Fruit Size, Green (% of Control)” value is on record as 83 % of Control. Besides, in series [3] (500 ppm), the “Fruit Size, Red (% of Control)” value is 127 % of Control.

Regarding `O=C(O)c1cccc2c1Cc1ccccc1-2` [1-fluorenecarboxylic acid], the “Yield (Kilograms) × 10^2” value in the series with soybean plants (100 ppm) stood at 17.16 Kilograms × 10^2; with soybean plants (500 ppm) it was 17.34 Kilograms × 10^2. In addition, the figures for the “Yield Improvement %” value with soybean plants (100 ppm) and in the series on soybean plants (500 ppm) were -2.7% and -1.5%, respectively.

Regarding `C[C@@H]1CC[C@H](C)N1.O=C(O)C1c2ccccc2-c2ccccc21` [Example 15, Cis-2,5-dimethylpyrrolidine salt of 9-fluorenecarboxylic acid], the “soybean yield, in words” value in the series on soybean plants (particularly at 500 ppm, over untreated control and fluorenecarboxylic acids) was “significantly enhances soybean yield over the untreated control plot and over plots treated with known morphactins”.
